The values below come from US10696946B2, “T-REG cell expansion” (The Board of Trustees of the University of Illinois, priority 2013, dated 2020).

One assay has as its system Treg cell proliferation. Kind of assay: Pathway inhibitors on OX40L, JAG1 and IL-2-induced Treg proliferation (flow cytometry). The conditions noted are these: CD4+ T-cells from NOD mice pre-treated with inhibitor. In kind it is cell-based, mouse. As for the experimental part:
FIG. 21. Role of NF-κB and STAT5 signaling pathways in OX40L-JAG1-IL-2 induced Treg proliferation and Foxp3 expression. (A) CD4+ T-cells from NOD mice were pre-treated with pharmacological inhibitors of indicated cell signaling pathways and treated with soluble OX40L-JAG1-IL-2. Effect of these pathway inhibitors on Treg cell proliferation was measured by flow cytometry analysis. (B) RT-qPCR analysis showing effect of inhibitors of NF-κB and STAT5 signaling pathways on Foxp3 mRNA expression (Values represent Mean±SEM, n=3, *p<0.05, **p<0.01, ***p<0.001 Vs control, ^#p<0.05, ^##p<0.01 Vs None-OX40L-JAG1-IL-2). (C) Western blot analysis showing effect of inhibitors of NF-κ B and STAT5 signaling pathways on Foxp3 protein expression. Western blot analysis of the time dependent effect of soluble OX40L-JAG1-IL-2 on (D) Foxp3 expression, (E) NF-κ B p65 phosphorylation and (F) STAT5 phosphorylation in CD4+ T-cells. […]
CD4+ T-cells (1×10^6 cells/ml) were treated with soluble OX40 L, JAG1 and IL-2 as mentioned above. […] Foxp3, pp65 and pSTAT5 signal intensities were normalized to β-actin, total p65 and STAT5 signal intensities and expressed as fold change over respective controls.
On the technique in general: In flow cytometry, cells or beads pass a laser one at a time.

The test system of the next assay is Foxp3. The experiment in a line: Pathway inhibitors on OX40L, JAG1 and IL-2-induced Foxp3 expression (RT-qPCR, Western blot). Format: cell-based, mouse. The conditions noted are these: at 24 h. As for the experimental part:
CD4+ T-cells (1×10^6 cells/ml) were treated with soluble OX40 L, JAG1 and IL-2 as mentioned above. In some experiments cells were pre-treated with inhibitors of Notch (GSI-R04929097, Selleckchem), NF-κ B (BAY-11-7082, Sigma-Aldrich) and STAT5 (CAS 285986-31-4, Calbiochem) signaling for 2 h and co-treated with soluble ligands for different time intervals. Cells were washed with PBS, and lysed in Laemmli buffer (Biorad) and resolved in 10% SDS-PAGE gels. Proteins were transferred to PVDF membranes (Biorad), blocked with 5% skimmed milk and incubated with primary anti-mouse Foxp3 (1:1000, ebioscience), anti-mouse phospho p65 (Ser536) and phospho STAT5 (Tyr694) (1:500, Cell Signaling Technology) antibodies. Blots were then washed, incubated with secondary anti-rabbit IgG-HRP and developed using ECL detection kit (Pierce Scientific). […] Foxp3, pp65 and pSTAT5 signal intensities were normalized to β-actin, total p65 and STAT5 signal intensities and expressed as fold change over respective controls.
For some experiments, resting and proliferating Tregs were sorted based on cell trace violet dilution. […] Gene expression values were calculated by comparative Δ Ct method after normalization to GAPDH internal control and expressed as fold change over respective controls. […] Data were analyzed using the R-package software. […]
Background: Real-time PCR tracks product formation cycle by cycle.

The next assay deals with Foxp3+ Tregs. The experiment in a line: GM-BMDC / CD4+ T-cell co-culture, Treg proliferation by CFSE dilution (FACS). In kind it is cell-based, mouse. The following applies: for Treg proliferation: GM-BMDCs alone ~13.2±0.4%. As for the experimental part:
Each in vitro experiment was conducted in triplicate with T-cells, SpDCs and GM-BMDCs pooled from 3 mice. GM-BMDCs (5×10^4) and CD11c^+ SpDCs were cultured with CD4^+, CD4^+CD25^− and CD4^+CD25^+ T-cells at a ratio of 1:2 for 5 days. For proliferation assays, T-cell subpopulations were labelled with CFSE at 10 μM according to manufacturer's instruction (Invitrogen, Carlsbad, Calif.) before co-culturing them with DCs. Some cultures were supplemented with IL-2 (10 U/ml) (R&D Systems), antiOX40L (up to 10 μg/ml) antibody, OX40 agonist (OX-86, 5-10 μg/ml), anti-Jagged-1 (10-20 μg/ml) antibody or anti-Notch3 (10-20 μg/ml) antibody. For blocking experiments with anti-OX40L or anti-Jagged-1 antibodies, GM-BMDCs were pre-treated with the indicated antibodies for 30 min at 37° C. and then used in co-culture with naive CD4^+ T-cells. For blocking experiments with anti-Notch3 antibody, CD4+ T-cells isolated from mouse splenocytes were first treated with anti-Notch3 antibody at two different concentrations (10 and 20 μg/ml) or with 20 μg/ml of an anti-Notch 1 antibody, incubated at 37° C. for 30 minutes and then co-cultured with GM-BMDCs/SpDCs for 5 days. Some co-cultures were supplemented with different concentrations of gamma-secretase inhibitors (GSI) S-2188 (5 and 10 μM) or R04929097 (200 nM-5 μM).
Freshly isolated and ex vivo cultured cells were washed with PBS-BSA-EDTA or PBS containing 0.5% BSA. For surface staining, the cells were labelled with one of the following: specified FITC, PE, APC conjugated antibodies for 30 min, anti-CD4-eFluor-780, CD4-FITC (eBioscience), anti-CD25-PE, anti-CTLA4-PE, anti-CD39-PE, anti-Helios-PE, anti-TIGIT-PE or fixed, permeabilized, and stained with anti-, Anti-Ki67-PE, anti-Foxp3-APC and isotype controls antibodies (eBioscience) (1:100) in dark. […] Stained cells were washed three times and analyzed by Cyan flow cytometer (Beckman/Coulter) and data analysis was done using Summit v4.3 software.

Another assay relates to Notch signaling. The experiment in a line: GSI-treated CD4+ T-cells from NOD mice co-cultured with G-BMDCs, proliferation by flow cytometry. In kind it is cell-based, mouse. The following applies: indicated concentrations, 5 days with G-BMDCs. As for the experimental part:
FIG. 13. […] (A) CD4+ T-cells from NOD mice were treated with γ-secretase inhibitor (GSI)-R042929097 at indicated concentrations and then co-cultured with G-BMDCs for 5 days. Extent of proliferation was measured by flow cytometry (n=3). (B) Notch3-OX40−, […], Notch3-OX40+, Notch3+OX40+ subsets of CD4^+CD25^+ Treg cells sorted out and co-cultured with G-BMDCs for 5 days and extent of proliferation was analyzed (n=2).
Bone marrow cells were cultured in complete RPMI medium containing 10% heat-inactivated FBS in the presence of 20 ng/ml GM-CSF for 3 days. On days 4 and 6, fresh medium containing 20 ng/ml GM-CSF was added. Non-adherent CD11c^+ DCs from eight day old cultures were enriched using anti-CD11c coated magnetic beads according to the manufacturer's directions (Miltenyi Biotech, Auburn, Calif.). Specific sub-populations of GM-BMDCs and CD4+CD25+ T-cells were sorted using a MoFlo flow cytometer (Beckman/Coulter, Ranch Cucamonga, Calif.) following staining with appropriate antibodies (OX40L, Jagged-1, CD4, CD25). To obtain GFP+ and GFP− cells, total CD4+ cells were first separated using CD4 microbeads (Miltenyi Biotech) and then the cells were sorted based on GFP expression using a MoFlo flow cytometer (Beckman/Coulter). […]

A further assay has as its system NOD mice. The following applies: cited from earlier work.

Read-outs that look alike come from different tables or passages of the source.

With `Cc1ccc(S(=O)(=O)/C=C/C#N)cc1` [NF-κB inhibitor], the “OX40L, JAG1 and IL-2-induced Treg proliferation” value with Treg cell proliferation is “significantly blocked”. Also, in the assay with Foxp3, the “OX40L, JAG1 and IL-2-induced Foxp3 expression” value is on record as “significantly down regulated”.

Turning to `CC(C)(C(=O)NCC(F)(F)C(F)(F)F)C(=O)N[C@@H]1C(=O)Nc2ccccc2-c2ccccc21` [R04929097], the Treg proliferation stood at 5.2±0.4% in the assay with Foxp3+ Tregs (250 nM) and 1.7±0.3% in the assay with Foxp3+ Tregs (5 μM). Further, in the assay with Foxp3+ Tregs (different concentrations (FIG. 8)), the “GM-BMDC mediated Treg proliferation” value is listed as “abrogated”. Moreover, the “inhibition of Notch signaling / Treg proliferation” value in the assay with Notch signaling was “dose-dependent manner”.

On to `O=C(N/N=C/c1coc2ccccc2c1=O)c1cccnc1` [STAT5 inhibitor], for which the “OX40L, JAG1 and IL-2-induced Treg proliferation” value in the assay on Treg cell proliferation is reported as “significantly blocked”. Also, the “OX40L, JAG1 and IL-2-induced Foxp3 expression” value in the assay with Foxp3 is on record as “only moderately inhibited”.

B1: OX40L: tumor necrosis factor superfamily member with co-stimulatory function, binds OX40 (protein, UniProt P23510 1-183, looked up)
Tumor necrosis factor ligand …: MERVQPLEENVGNAARPRFERNKLLLVASVIQGLGLLLCFTYICLHFSALQVSHRYPRIQSIKVQFTEYKKEKGFILTSQKEDEIMKVQNNSVIINCDGFYLISLKGYFSQEVNISLHYQKDEEPLFQLKKVRSVNSLMVASLTYKDKVYLNVTTDNTSLDDFHVNGGELILIHQNPGEFCVL
In the case of B1, in the assay with NOD mice (6-week old NOD mice), the “CD4+CD25+Foxp3+ Treg cells” value is on record as “increase” and the development of diabetes entry is listed as “protect”. The development of diabetes entry in the assay with NOD mice (12-week old NOD mice) is “accelerated diabetes development”.
